Results as given in patent US20240156093A1 (priority 2021, published 2024).
In brackets after ≈: the same amount, converted by molar mass.

Experiments:
physchem [1] = conditions: 25 °C, water
physchem [2] = test: physchem
[3] = test system: feline calicivirus (non-enveloped virus); assay type: cell-based
[4] = test system: influenza virus (enveloped virus); assay type: cell-based

SMILES	solubility (physchem [1]) [µg/mL]	pKa (physchem [2])	also measured
Nc1ccc(C(=O)O)cc1 [4-aminobenzoic acid]	6000 (≈ 43.8 mM)	–	–
O=C(O)CCCCC(=O)O [Adipic acid, adipic acid]	–	4.34	–
CCCCCCCCCCCCc1ccc(S(=O)(=O)[O-])cc1.[Na+] [Comparative example 2, sodium dodecylbenzene sulfonate]	–	–	Feline calicivirus: Antiviral activity value [3]: 0.3; Feline calicivirus: Virus infectivity titer common logarithmic value [3]: 6.2 PFU/cm^2; Influenza virus: Antiviral activity value [4]: 2.0; Influenza virus: Virus infectivity titer common logarithmic value [4]: 4.5 PFU/cm^2
O=C(O)CCCCC(=O)O [Comparative example 3, adipic acid]	–	–	Feline calicivirus: Antiviral activity value [3]: 0.5; Feline calicivirus: Virus infectivity titer common logarithmic value [3]: 6 PFU/cm^2; Influenza virus: Antiviral activity value [4]: 1.7
O=C(O)/C=C/C(=O)O [Fumaric acid, fumaric acid]	6300 (≈ 54.3 mM)	3.02	–
CCCCCCCCCCCC(=O)O [Lauric acid, lauric acid]	4.8 (≈ 0.024 mM)	4.92	–
CCCCCCCC/C=C\CCCCCCCC(=O)O [Oleic acid, oleic acid]	–	5.35	–
O=C(O)c1ccccc1C(=O)O [Phthalic acid, phthalic acid]	7200 (≈ 43.3 mM)	2.94	–
O=C(O)c1ccccc1O [Salicylic acid, salicylic acid]	2000 (≈ 14.5 mM)	–	–
CCCCCC(=O)O [caproic acid]	11000 (≈ 94.7 mM)	–	–
CCCCCCC(=O)O [enanthic acid]	2400 (≈ 18.4 mM)	–	–
O=C(O)c1cccc(C(=O)O)c1 [isophthalic acid]	130 (≈ 0.783 mM)	–	–
CCCCCCCCC(=O)O [pelargonic acid]	280 (≈ 1.77 mM)	–	–
O=C(O)c1ccc(C(=O)O)cc1 [terephthalic acid]	17 (≈ 0.102 mM)	–	–
